The source of these data is patent publication US10717716B2, “1,3,4-oxadiazole derivative compounds as histone deacetylase 6 inhibitor, and the pharmaceutical composition comprising the same” (Chong Kun Dang Pharmaceutical Corp., priority 2015, dated 2020).

Molecules are shown by their SMILES. pIC50: −log10 of the molar value.

The target of the experiment is T1, human recombinant HDAC6 (Homo sapiens, UniProt Q9UBN7).
T1 construct: purchased Calbiochem 382180
T1 sequence (Q9UBN7 1-1215): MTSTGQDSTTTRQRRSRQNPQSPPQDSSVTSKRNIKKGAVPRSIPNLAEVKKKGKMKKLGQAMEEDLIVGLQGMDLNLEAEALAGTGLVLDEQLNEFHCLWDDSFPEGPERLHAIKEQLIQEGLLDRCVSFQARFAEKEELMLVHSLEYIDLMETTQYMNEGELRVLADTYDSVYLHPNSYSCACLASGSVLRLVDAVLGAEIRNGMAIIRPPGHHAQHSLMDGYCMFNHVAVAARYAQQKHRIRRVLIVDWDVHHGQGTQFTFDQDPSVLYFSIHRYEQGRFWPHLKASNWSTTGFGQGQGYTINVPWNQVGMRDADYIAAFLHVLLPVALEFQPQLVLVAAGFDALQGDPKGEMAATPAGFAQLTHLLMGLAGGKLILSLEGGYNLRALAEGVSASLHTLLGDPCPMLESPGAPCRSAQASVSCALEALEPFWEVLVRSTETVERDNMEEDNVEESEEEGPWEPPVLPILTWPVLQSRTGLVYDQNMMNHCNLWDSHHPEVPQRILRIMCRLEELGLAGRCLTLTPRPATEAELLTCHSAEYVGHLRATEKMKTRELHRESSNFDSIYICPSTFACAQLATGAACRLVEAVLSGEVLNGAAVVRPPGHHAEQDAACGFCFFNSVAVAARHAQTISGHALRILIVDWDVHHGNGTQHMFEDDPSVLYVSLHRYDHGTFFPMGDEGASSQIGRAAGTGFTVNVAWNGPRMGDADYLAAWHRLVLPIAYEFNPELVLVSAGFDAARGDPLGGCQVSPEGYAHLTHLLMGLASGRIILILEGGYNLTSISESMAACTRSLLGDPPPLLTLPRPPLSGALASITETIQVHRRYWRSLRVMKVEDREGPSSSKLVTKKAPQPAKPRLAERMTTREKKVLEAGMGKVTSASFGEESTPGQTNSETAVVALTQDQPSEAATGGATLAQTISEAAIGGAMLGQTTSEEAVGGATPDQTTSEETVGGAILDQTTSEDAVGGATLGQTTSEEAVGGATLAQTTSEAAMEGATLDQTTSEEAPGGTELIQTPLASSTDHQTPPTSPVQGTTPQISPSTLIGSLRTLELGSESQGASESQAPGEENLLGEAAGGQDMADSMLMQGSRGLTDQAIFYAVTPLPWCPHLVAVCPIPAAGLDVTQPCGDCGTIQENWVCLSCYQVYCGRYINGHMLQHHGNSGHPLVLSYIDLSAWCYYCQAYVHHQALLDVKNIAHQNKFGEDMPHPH
Nature of the experiment: HDAC6 enzyme activity inhibition assay (HDAC Fluorimetric Drug Discovery Kit). Format: biochemical. Conditions: for HDAC6 selectivity (fold): HDAC6 over HDAC1; for pIC50: human recombinant HDAC6, same protocol as HDAC1, read-out: HDAC6. The gist of the method:
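Human recombinant HDAC1 or HDAC6 (0.3 μg) reacted with 10 μM Fluor de Lys-SIRT1 substrate and 5-fold compound dilutions for 60 min at 30 °C. Developer II added for 30 min, fluorescence read at Ex 360/Em 460; IC50 calculated from the readings.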

On to `CN(C)[C@@H]1CCN(C(=O)N(Cc2ccc(-c3nnc(C(F)(F)F)o3)cc2F)c2cccc(Cl)c2F)C1` [Compound 21645, (R)—N-(3-chloro-2-fluorophenyl)-3-(dimethylamino)-N-(2-fluoro-4-(5-(trifluoromethyl)-1,3,4-oxadiazol-2-yl)benzyl)pyrrolidine-1-carboxamide], for which the “HDAC6 selectivity (fold)” value amounted to 46 fold and the pIC50 was 6.67.
With `CCN1CCN(C(=O)N(Cc2ccc(-c3nnc(C(F)F)o3)cc2F)c2cccc(Cl)c2F)CC1` [Compound 21646, N-(3-chloro-2-fluorophenyl)-N-(4-(5-(difluoromethyl)-1,3,4-oxadiazol-2-yl)-2-fluorobenzyl)-4-ethylpiperazine-1-carboxamide], the “HDAC6 selectivity (fold)” value is listed as 317 fold and the pIC50 is 7.49.
With `O=C(N1CCS(=O)(=O)CC1)N(Cc1ccc(-c2nnc(C(F)F)o2)cc1F)c1ccc(F)cn1` [Compound 21653, N-(4-(5-(difluoromethyl)-1,3,4-oxadiazol-2-yl)-2-fluorobenzyl)-N-(5-fluoropyridin-2-yl)thiomorpholine-4-carboxamide 1,1-dioxide], the “HDAC6 selectivity (fold)” value was 246 fold and the pIC50 was 7.39.
`CCN1CCN(C(=O)N(Cc2ccc(-c3nnc(C(F)F)o3)cc2F)c2cccc(F)c2F)CC1` [Compound 21655, N-(4-(5-(difluoromethyl)-1,3,4-oxadiazol-2-yl)-2-fluorobenzyl)-N-(2,3-difluorophenyl)-4-ethylpiperazine-1-carboxamide]: the “HDAC6 selectivity (fold)” value came out at 690 fold and the pIC50 was 7.82.
The matching figures for `CCN1CCN(C(=O)N(Cc2ccc(-c3nnc(C(F)F)o3)cc2F)c2ccc(C)c(Cl)c2)CC1` [Compound 21657, N-(3-chloro-4-methylphenyl)-N-(4-(5-(difluoromethyl)-1,3,4-oxadiazol-2-yl)-2-fluorobenzyl)-4-ethylpiperazine-1-carboxamide]: 226 fold and 7.36.
As for `CN1CCN(C(=O)N(Cc2ccc(-c3nnc(C(F)F)o3)cc2F)c2cccc3cnn(C)c23)CC1` [Compound 21707, N-(4-(5-(Difluoromethyl)-1,3,4-oxadiazol-2-yl)-2-fluorobenzyl)-4-methyl-N-(1-methyl-1H-indazol-7-yl)piperazine-1-carboxamide], the “HDAC6 selectivity (fold)” value was determined as 199 fold and the pIC50 is 7.30.
With `Cn1ncc2cccc(N(Cc3ccc(-c4nnc(C(F)F)o4)cc3F)C(=O)N3CCS(=O)(=O)CC3)c21` [Compound 21708, N-(4-(5-(Difluoromethyl)-1,3,4-oxadiazol-2-yl)-2-fluorobenzyl)-N-(1-methyl-1H-indazol-7-yl)thiomorpholine-4-carboxamide 1,1-dioxide], the “HDAC6 selectivity (fold)” value was 167 fold and the pIC50 was 7.22.
On to `O=C(N1CC2(COC2)C1)N(Cc1ccc(-c2nnc(C(F)F)o2)cc1F)c1cccc(F)c1` [Compound 21759, N-(4-(5-(difluoromethyl)-1,3,4-oxadiazol-2-yl)-2-fluorobenzyl)-N-(3-fluorophenyl)-2-oxa-6-azaspiro[3.3]heptane-6-carboxamide], for which the “HDAC6 selectivity (fold)” value was 405 fold and the pIC50 is 7.60.
As for `Cc1cccc(N(Cc2ccc(-c3nnc(C(F)F)o3)cc2F)C(=O)N2CC3(COC3)C2)c1` [Compound 21760, N-(4-(5-(difluoromethyl)-1,3,4-oxadiazol-2-yl)-2-fluorobenzyl)-N-(m-tolyl)-2-oxa-6-azaspiro[3.3]heptane-6-carboxamide], the “HDAC6 selectivity (fold)” value is 215 fold and the pIC50 is 7.34.
For `CCN1CC2(CCN(C(=O)N(Cc3ccc(-c4nnc(C(F)F)o4)cc3F)c3ccc4cnn(C)c4c3)CC2)C1` [Compound 21765, N-(4-(5-(Difluoromethyl)-1,3,4-oxadiazol-2-yl)-2-fluorobenzyl)-2-ethyl-N-(1-methyl-1H-indazol-6-yl)-2,7-diazaspiro[3.5]nonane-7-carboxamide], in that order: 88 fold and 6.94.
As to `O=C(N1CCOCC1)N(Cc1ccc(-c2nnc(C(F)F)o2)nc1)c1ccc(F)c(Cl)c1` [Compound 21766, N-(3-Chloro-4-fluorophenyl)-N-((6-(5-(difluoromethyl)-1,3,4-oxadiazol-2-yl)pyridin-3-yl)methyl)morpholine-4-carboxamide], the “HDAC6 selectivity (fold)” value was 88 fold and the pIC50 was 6.94.
The matching figures for `O=C(N1CCS(=O)(=O)CC1)N(Cc1ccc(-c2nnc(C(F)F)o2)nc1)c1ccc(F)c(Cl)c1` [Compound 21767, N-(3-Chloro-4-fluorophenyl)-N-((6-(5-(difluoromethyl)-1,3,4-oxadiazol-2-yl)pyridin-3-yl)methyl)thiomorpholine-4-carboxamide 1,1-dioxide]: 9 fold and 5.94.
For `O=C(N1CCS(=O)(=O)CC1)N(Cc1ccc(-c2nnc(C(F)F)o2)cc1F)c1ccc2c(c1)CCC2` [Compound 21797, N-(4-(5-(Difluoromethyl)-1,3,4-oxadiazol-2-yl)-2-fluorobenzyl)-N-(2,3-dihydro-1H-inden-5-yl)thiomorpholine-4-carboxamide 1,1-dioxide], in that order: 37 fold and 6.57.
`CC1(C)Cc2cccc(N(Cc3ccc(-c4nnc(C(F)F)o4)cc3F)C(=O)N3CCS(=O)(=O)CC3)c2O1` [Compound 21798, N-(4-(5-(Difluoromethyl)-1,3,4-oxadiazol-2-yl)-2-fluorobenzyl)-N-(2,2-dimethyl-2,3-dihydrobenzofuran-7-yl)thiomorpholine-4-carboxamide 1,1-dioxide]: the “HDAC6 selectivity (fold)” value came out at 8 fold and the pIC50 is 5.88.
For `Cn1ccc2cc(N(Cc3ccc(-c4nnc(C(F)F)o4)cc3F)C(=O)N3CCS(=O)(=O)CC3)ccc21` [Compound 21799, N-(4-(5-(difluoromethyl)-1,3,4-oxadiazol-2-yl)-2-fluorobenzyl)-N-(1-methyl-1H-indol-5-yl)thiomorpholine-4-carboxamide 1,1-dioxide], in that order: 33 fold and 6.52.
The matching figures for `O=C(N1CCS(=O)(=O)CC1)N(Cc1ccc(-c2nnc(C(F)F)o2)cc1F)c1ccc(F)cc1` [Compound 21806, N-(4-(5-(difluoromethyl)-1,3,4-oxadiazol-2-yl)-2-fluorobenzyl)-N-(4-fluorophenyl)thiomorpholine-4-carboxamide 1,1-dioxide]: 261 fold and 7.42.
For `O=C(N1CCS(=O)(=O)CC1)N(Cc1ccc(-c2nnc(C(F)F)o2)cc1F)c1cccc(F)c1` [Compound 21807, N-(4-(5-(difluoromethyl)-1,3,4-oxadiazol-2-yl)-2-fluorobenzyl)-N-(3-fluorophenyl)thiomorpholine-4-carboxamide 1,1-dioxide], in that order: 256 fold and 7.41.
`O=C(N1CCS(=O)(=O)CC1)N(Cc1ccc(-c2nnc(C(F)F)o2)cc1F)c1ccc(Cl)cc1` [Compound 21809, N-(4-chlorophenyl)-N-(4-(5-(difluoromethyl)-1,3,4-oxadiazol-2-yl)-2-fluorobenzyl)thiomorpholine-4-carboxamide 1,1-dioxide]: the “HDAC6 selectivity (fold)” value stood at 174 fold and the pIC50 is 7.24.
The matching figures for `CCn1ncc2ccc(N(Cc3ccc(-c4nnc(C(F)F)o4)cc3F)C(=O)N3CCS(=O)(=O)CC3)cc21` [Compound 21811, N-(4-(5-(Difluoromethyl)-1,3,4-oxadiazol-2-yl)-2-fluorobenzyl)-N-(1-ethyl-1H-indazol-6-yl)thiomorpholine-4-carboxamide 1,1-dioxide]: 144 fold and 7.15.
For `CC(C)n1ncc2ccc(N(Cc3ccc(-c4nnc(C(F)F)o4)cc3F)C(=O)N3CCS(=O)(=O)CC3)cc21` [Compound 21812, N-(4-(5-(Difluoromethyl)-1,3,4-oxadiazol-2-yl)-2-fluorobenzyl)-N-(1-isopropyl-1H-indazol-6-yl)thiomorpholine-4-carboxamide 1,1-dioxide], in that order: 94 fold and 6.97.
